From BindingDB's records for doi:10.1021/jm801176e (Nci-Frederick, 2009)

How the values were obtained:
[1] = Inhibition of HIV1 wild type reverse transcriptase-mediated viral DNA synthesis in human HOS cells assessed as luciferase activity treated 3 hrs before infection measured after 48 hrs by luminescence assay
[2] = Inhibition of HIV1 wild type reverse transcriptase-mediated viral DNA synthesis in human HOS-313 cells expressing HSV thymidine kinase assessed as luciferase activity treated 3 hrs before infection measured after 48 hrs by luminescence assay
[3] = Inhibition of HIV1 reverse transcriptase M184V mutant-mediated viral DNA synthesis in human HOS cells assessed as luciferase activity treated 3 hrs before infection measured after 48 hrs by luminescence assay
[4] = Inhibition of HIV1 reverse transcriptase M184V mutant-mediated viral DNA synthesis in human HOS-313 cells expressing HSV thymidine kinase assessed as luciferase activity treated 3 hrs before infection measured after 48 hrs by luminescence assay

SMILES | IC50 [1] [nM] | IC50 [2] [nM] | IC50 [3] [nM] | IC50 [4] [nM]
Cc1cccc2c1OP(=O)(OC[C@H]1C[C@@H](n3cc(C)c(=O)[nH]c3=O)C[C@@H]1O)OC2 (stereo not given in full) | 380 | 120 | – | –
Cc1cn([C@@H]2C[C@H](CO)[C@@H](O)C2)c(=O)[nH]c1=O | 3200 | – | 1800 | 190
